# Measured values as given in patent US9717775B2 (priority 2006, dated 2017).
# Legend:
# α6/α3β2β3 nAChR = format: cell-based, rat
# α9α10 nAChR = α9α10 nAChR (Rattus norvegicus, UniProt P43144+Q9JLB5); format: cell-based
# α6/α3β4 nAChR = format: cell-based, rat
# Chain of α9α10 nAChR (P43144 26-479 limits assumed): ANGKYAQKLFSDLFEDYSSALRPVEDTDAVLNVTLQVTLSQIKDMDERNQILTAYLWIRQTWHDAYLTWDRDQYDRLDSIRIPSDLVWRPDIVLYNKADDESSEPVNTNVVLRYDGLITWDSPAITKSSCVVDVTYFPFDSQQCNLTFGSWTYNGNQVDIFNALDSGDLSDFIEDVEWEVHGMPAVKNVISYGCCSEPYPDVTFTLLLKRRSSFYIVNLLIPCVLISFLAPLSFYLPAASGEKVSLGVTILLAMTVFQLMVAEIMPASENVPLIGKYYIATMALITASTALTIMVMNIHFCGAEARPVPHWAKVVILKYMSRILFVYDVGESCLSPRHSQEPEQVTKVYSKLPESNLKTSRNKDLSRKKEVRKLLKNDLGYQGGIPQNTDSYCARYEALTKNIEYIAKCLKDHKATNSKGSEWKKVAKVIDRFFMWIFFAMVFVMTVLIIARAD
# Chain of α9α10 nAChR (Q9JLB5 25-447 limits assumed): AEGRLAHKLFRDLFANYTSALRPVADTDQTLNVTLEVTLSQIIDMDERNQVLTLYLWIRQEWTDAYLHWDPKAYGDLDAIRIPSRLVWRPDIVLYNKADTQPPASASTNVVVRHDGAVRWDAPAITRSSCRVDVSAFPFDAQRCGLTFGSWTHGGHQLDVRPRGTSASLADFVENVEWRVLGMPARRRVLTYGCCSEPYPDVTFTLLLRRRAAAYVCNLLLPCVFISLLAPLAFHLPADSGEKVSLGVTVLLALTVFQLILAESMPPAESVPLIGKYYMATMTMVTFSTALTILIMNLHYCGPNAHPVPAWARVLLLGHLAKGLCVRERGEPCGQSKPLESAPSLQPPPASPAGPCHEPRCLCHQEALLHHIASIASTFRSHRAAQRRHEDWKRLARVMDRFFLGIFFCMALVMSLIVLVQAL
substance,measurement,setting,value
α-conotoxin Vc1.1 [reference compound],IC50,α6/α3β2β3 nAChR,0.144 µM
same,Hill slope,α9α10 nAChR,0.702±0.11
same,IC50,α9α10 nAChR,0.0229 µM
same,IC50,α6/α3β4 nAChR,0.982 µM
